Laboratory results reported in patent US9206412B2, “Thioxothiazolidine inhibitors” (Colorado State University Research Foundation, priority 2012, dated 2015).
Values joined by “and” are separate entries in the source; they are usually repeats but may differ in a detail not shown here. Equal entries are not always repeated. “Also recorded” adds a separate entry of the source. Where two headings read alike, the source gives them in different places.

Columns and labels:
[1] = biological target: T1, dengue virus capping enzyme (Dengue virus type 2, UniProt P29990); format: binding
T1 sequence (P29990 2492-2758): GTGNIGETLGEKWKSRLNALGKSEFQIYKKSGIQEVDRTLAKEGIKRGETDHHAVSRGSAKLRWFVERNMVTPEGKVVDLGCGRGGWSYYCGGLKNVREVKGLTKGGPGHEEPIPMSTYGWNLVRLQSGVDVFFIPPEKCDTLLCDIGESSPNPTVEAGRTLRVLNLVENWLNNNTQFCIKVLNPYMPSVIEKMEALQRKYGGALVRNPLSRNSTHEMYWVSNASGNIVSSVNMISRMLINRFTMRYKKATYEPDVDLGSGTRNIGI

[2] = biological target: yellow fever virus capping enzyme (Yellow fever virus, UniProt P03314); test: biochemical; format: binding, yellow fever virus (strain 17D)
WNV = test: Ki determination, fluorescence polarization (FP_WNV_KI); details: read-out: FP_WNV_KI_AVG_WNV_M; Table 2-1
BHK-pD2hRucPac cells = test: Cell viability (CellTiter-Glo) in replicon assay; details: read-out: Replicon Assay_CC50_M; Table 2-1
[3] = tested on: dengue type 2 virus subgenomic replicon (BHK-pD2hRucPac); test: Antiviral (replicon) assay, Renilla luciferase; format: cell-based
[4] = biological target: T1, dengue virus capping enzyme; test: biochemical; format: binding, dengue virus type 2 (strain 16681)
dengue capping enzyme = dengue capping enzyme (Dengue virus type 2, UniProt P29990); test: Guanylation inhibition assay
[5] = Cell viability (CellTiter-Glo) in replicon assay; details: hamster, BHK-pD2hRucPac cells (dengue replicon cells)
Sindbis virus pBG451 = format: cell-based
yellow fever (17D) virus = format: cell-based
[6] = tested on: West Nile virus (Kunjin subtype); format: cell-based
[7] = tested on: West Nile virus (Kunjin) RNA; test: qRT-PCR of Kunjin viral RNA in culture media; format: cell-based
Method: Quantitative Reverse Transcriptase Real-Time PCR Analysis. West Nile virus (Kunjin) RNA was extracted from cell culture media with Trizol LS (Invitrogen, La Jolla, Calif.) following the manufacturer's protocol. Quantitative reverse transcriptase real-time PCR reactions for Kunjin genomic RNA were performed using the Brilliant III Ultra-Fast SYBR QRT-PCR Master Mix (Catalog # 600886, Agilent, Santa Clara, Calif.) with primers Fwd 6170 (5′-[…] (SEQ ID NO: 1)) and Rev 6278 (5′-[…] (SEQ ID NO: 2)). To set up qRT-PCR reactions, 2 μL of extracted RNA was added to 5 μL of 2× master mix, 1 μL of 5 μM Fwd 6170 primer, 1 μL of 5 μM Rev 6278 primer, and 1 μL of 100 mM DTT in 96-well PCR plates with optically clear sealing films. No RNA and no primer controls were included in each experiment. qRT-PCR reactions were performed on a BioRad CFX384 real-time PCR thermal cycler using the following cycling conditions: Reverse transcriptase step=50° C., 10 minutes; denature step=95° C., 3 minutes; PCR (40 cycles)=95° C., 5 seconds/60° C., 10 seconds. Melt curves were performed at the end of each run, to verify the specificity of the detected SYBR signal. Cq values were determined by setting the threshold to 40 for all experiments. Standard curves were generated from diluted media containing Kunjin virus of known titer (PFU/mL), and the Cq values from experimental samples were compared to the standard curve to establish PFU equivalent/mL values for each sample (y=−3.475x+27.577, y=Cq , X=Log10(PFU)). The limit of detection in these experiments was determined to be 10 PFU equivalents/mL. All experiments were performed three times, and the average and standard error of the mean reported.

Kunjin virus NS5 protein = test: Western blot analysis of NS5 in Kunjin infected BHK cells; details: MOI=0.01, 48 hours post-infection, increasing concentrations
[8] = Table 2-1, read-out: Replicon Assay_EC50_M
[9] = Replicon Assay_CC50_M, Table 2-1
[10] = Replicon CC50, Table 3, 72 hours
[11] = Dengue virus, 72 h, read-out: Replicon EC50, Table 3, 72 hours
[12] = Dengue virus, read-out: Replicon Assay_EC50_M, Table 2-1
[13] = Dengue virus, 72 h, read-out: Replicon EC50, 72 hours

Chain of yellow fever virus capping enzyme (P03314 2507-2774 limits assumed): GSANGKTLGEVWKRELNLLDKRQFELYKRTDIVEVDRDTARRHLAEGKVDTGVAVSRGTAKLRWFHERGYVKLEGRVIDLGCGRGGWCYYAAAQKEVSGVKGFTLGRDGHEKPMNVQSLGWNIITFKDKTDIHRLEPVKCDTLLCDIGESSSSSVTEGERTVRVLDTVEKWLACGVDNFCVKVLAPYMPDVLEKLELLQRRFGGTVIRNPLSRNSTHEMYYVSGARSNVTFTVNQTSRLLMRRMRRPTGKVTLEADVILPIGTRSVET

| Compound | Ki ([2]; read-out: FP_YF_KI_AVG_YF_M) [µM] | CC50 (BHK-pD2hRucPac cells) [µM] | EC50 [3, 8] [µM] | Ki ([4]; read-out: FP_DEN_Ki_AVG_DEN_M) [µM] | also measured |
| --- | --- | --- | --- | --- | --- |
| COc1c(I)cc(I)cc1/C=C1\SC(=S)N(CC(=O)O)C1=O [BG-5] |  |  |  |  | HTS Activity [1]: S (key: Weak (W)=50%-75% reduction in FP signal; Moderate (M)=76%-90% reduction; Strong (S)=>90% reduction) |
| CC(C)(C)c1ccc(/C=C2\SC(=S)N(CCC(=O)O)C2=O)cc1 [BG295] | 2 | 114 | 30 | 2 | Ki (WNV): 8 µM |
| O=C(O)CCN1C(=O)/C(=C/c2cccc(Cl)c2Cl)SC1=S [BG-324] |  |  |  |  | Ki ([2]; FP_YF_KI_AVG_YF_M): 16 µM; IC50 (dengue capping enzyme): 155 µM; CC50 at 72 h [5, 9]: 12 µM; CC50 at 72 h [5, 10]: 12 µM; EC50 [3, 11]: 8.5 µM; EC50 [3, 12]: 9 µM; Ki ([4]; FP_DEN_Ki_AVG_DEN_M): 10 µM; Ki ([4]; Ki (GTP displacement)): 9.9 µM |
| CC(C)(C)c1ccc(/C=C2/SC(=S)N(CCC(=O)O)C2=O)cc1 [BG-323, (E)-3-(5-(4-tert-butylbenzylidene)-4-oxo-2-thioxo-1,3-thiazolidin-3-yl)propanoic acid] |  |  |  |  | Ki ([2]; FP_YF_KI_AVG_YF_M): 9.5 µM; Ki ([2]; Ki (GTP binding)): ~7 µM; Renilla signal of Sindbis virus (Sindbis virus pBG451): Only a very minor reduction in Renilla signal; also recorded: insensitive; reduction of virus titers (yellow fever (17D) virus): slightly less robust effect; cell viability (BHK cells): minor reduction in cell viability; reduction of virus titers [6]: ~3 logs; viral RNA in media with replacement of compound every 24 hours ([7]; 100 μM, fresh media every 24 hours for 72 hours): significantly reduced viral RNA in media over time; viral RNA detectable in the media ([7]; BHK, Kunjin MOI=0.01, 50 μM or 100 μM, 72 hours post-infection): significantly reduced; activity after pre-incubation in media at 37° C. ([7]; pre-incubated 3, 2, 1, or 0 days, 50 μM, Kunjin RNA at 72 hours): becomes less active over longer incubation periods; CC50 at 72 h [5, 9]: 184 µM; CC50 at 72 h [5, 10]: 184 µM; CC50 at 72 h ([5]; Replicon CC50, text): 184 µM; EC50 [3, 11]: 30.8 µM; EC50 [3, 13]: 30.8 µM; EC50 [3, 12]: 30.8 µM; EC50 ([3]; read-out: Replicon EC50, 72 hours): ~30 µM; viral NS5 protein level (Kunjin virus NS5 protein): significant decrease in NS5; Ki ([4]; FP_DEN_Ki_AVG_DEN_M): 7.5 µM; Ki ([4]; Ki (GTP displacement)): ~7 µM and 7.5 µM and ~10 µM |
| O=C(O)CN1C(=O)/C(=C\c2ccc(-c3ccc(Cl)cc3Cl)o2)SC1=S [2044-5240] |  |  |  |  | HTS Activity [1]: M (key: Weak (W)=50%-75% reduction in FP signal; Moderate (M)=76%-90% reduction; Strong (S)=>90% reduction) |
| CN1C(=O)S/C(=C\c2ccc(-c3ccc(C(=O)O)c(Cl)c3)o2)C1=O [BG175] | 17 | 82 | 78 | 13 |  |
| NC(=O)c1ncn([C@@H]2O[C@H](CO)[C@@H](O)[C@H]2O)n1 [Ribavirin, reference compound] |  |  |  |  | CC50 at 72 h ([5]; Replicon CC50, text): 49 µM; EC50 [3, 13]: 12 µM |
| O=C(O)CN1C(=O)/C(=C/c2ccc(OCc3ccccc3)cc2)SC1=S [BG-170] |  |  |  |  | HTS Activity [1]: W (key: Weak (W)=50%-75% reduction in FP signal; Moderate (M)=76%-90% reduction; Strong (S)=>90% reduction) |
| Cc1cc(C)cc(-n2c(C)cc(/C=C3\SC(=O)NC3=O)c2C)c1 [BG172] | 14 | 26 | 20 | 11 |  |
| O=C(O)CCN1C(=O)C(=Cc2ccc(-c3ccccc3[N+](=O)[O-])o2)SC1=S [BG139] | 7 | 56 | 51 | 5 |  |
| O=C(O)CCN1C(=O)/C(=C/c2ccc(Cl)cc2Cl)SC1=S [BG-330] |  |  |  |  | Ki ([2]; FP_YF_KI_AVG_YF_M): 9 µM; IC50 (dengue capping enzyme): 2.6 µM; CC50 at 72 h [5, 9]: 11 µM; CC50 at 72 h [5, 10]: 12 µM; EC50 [3, 11]: 8.7 µM; EC50 [3, 12]: 9 µM; Ki ([4]; FP_DEN_Ki_AVG_DEN_M): 10 µM; Ki ([4]; Ki (GTP displacement)): 9.8 µM |
| O=C(CN1C(=O)/C(=C/c2ccccc2Cl)SC1=S)Nc1ccccc1C(=O)O [BG100] | 5 | 49 | 37 | 3 |  |
| CC(C)N1C(=O)SC(=Cc2ccccc2OCc2ccc(C(=O)O)cc2)C1=O [BG166] | 14 | 33 | 28 | 7 |  |
| CCOc1ccc(N2C(=O)C(=Cc3ccccc3C(=O)O)SC2=S)cc1 [BG126] | 19 | 51 | 52 | 17 |  |
| O=C(O)CN1C(=O)/C(=C/c2ccc(Oc3ccccc3)cc2)SC1=S [BG-115] |  |  |  |  | HTS Activity [1]: M (key: Weak (W)=50%-75% reduction in FP signal; Moderate (M)=76%-90% reduction; Strong (S)=>90% reduction) |
| O=C(CN1C(=O)/C(=C/c2ccccc2F)SC1=S)Nc1cccc(C(=O)O)c1 [BG131] | 12 | 71 | 54 | 6 |  |
| O=C(CCN1C(=O)C(=Cc2ccc(Cl)cc2)SC1=S)Nc1ccc(C(=O)O)cc1 [BG122] | 5 | 58 | 41 | 3 |  |
| Cc1cccc(N2C(=O)/C(=C/c3ccc(C(=O)O)cc3)SC2=S)c1C [BG128] | 13 | 42 | 45 | 11 |  |
| O=C(O)C(Cc1ccccc1)N1C(=O)C(=CC=Cc2ccccc2)SC1=S (stereo not drawn) [BG138] | 4 | 33 | 32 | 3 |  |
| O=C(CN1C(=O)C(=Cc2ccccc2Cl)SC1=S)Nc1cccc(C(=O)O)c1 [BG123] | 5 | 103 | 75 | 4 |  |
| COc1ccccc1C=C1SC(=S)N(C(Cc2ccccc2)C(=O)O)C1=O (racemic) [BG101] | 8 | 46 | 42 | 9 |  |
| COc1cc(/C=C2\SC(=O)N(Cc3ccc(F)cc3)C2=O)c(Br)cc1OCC(=O)O [BG163] | 9 | 38 | 32 | 5 |  |
| O=C(CCN1C(=O)C(=Cc2ccc(Cl)cc2)SC1=S)Nc1cccc(C(=O)O)c1 [BG121] | 5 | 39 | 33 | 3 |  |
